Results taken from ChEMBL document CHEMBL3580594, “Synthesis and biological evaluation of 4-substituted fluoronucleoside analogs for the treatment of hepatitis B virus infection” (J Med Chem, 2015).

Columns and labels:
[1] = Cytotoxicity against human HepG2.2.15 cells by MTT assay; type: cell-based, HepG2 2.2.15
[2] = system: Hepatitis B virus; experiment: Antiviral activity against Hepatitis B virus in HepG2.2.15 cells assessed as inhibition of intracellular/extracellular viral DNA replication at 0.2 to 5 uM by real-time FQ-PCR analysis; type: functional, organism-based; details: HepG2 2.2.15, TDE = time-dependent effect
[3] = system: Mus musculus; experiment: Acute toxicity in KM mouse assessed as adverse effect at 200 mg/kg, iv suspended in normal saline; type: organism-based; details: in vivo
[4] = system: Mus musculus; experiment: Acute toxicity in KM mouse assessed as listlessness at 300 mg/kg, iv suspended in normal saline; type: organism-based; details: in vivo
[5] = system: Mus musculus; experiment: Acute toxicity in KM mouse assessed as death at 400 mg/kg, iv suspended in normal saline; type: organism-based; details: in vivo
[6] = system: Mus musculus; experiment: Acute toxicity in KM mouse assessed as morbidity at 3 g/kg, iv suspended in 0.5% CMC/Na solution after 14 days; type: organism-based; details: in vivo, 3000 mg/kg, 336 h
[7] = system: Mus musculus; experiment: Acute toxicity in KM mouse assessed as mortality at 3 g/kg, iv suspended in 0.5% CMC/Na solution after 14 days; type: organism-based; details: in vivo, 3000 mg/kg, 336 h
[8] = system: Mus musculus; experiment: Toxicity in KM mouse assessed as peripheral WBC number in blood per liter at 40 mg/kg, po single dose after 48 hrs (reference value: 11.10 x 2.69/L x 10^-9); type: organism-based; details: in vivo
[9] = system: Mus musculus; experiment: Toxicity in KM mouse assessed as micronucleus frequency in bone marrow polychromatic erythrocyte at 20 mg/kg, po single dose after 48 hrs (reference value: 2.20 +/- 0.84 %); type: organism-based; details: in vivo
[10] = system: Mus musculus; experiment: Toxicity in KM mouse assessed as micronucleus frequency in bone marrow polychromatic erythrocyte at 80 mg/kg, po single dose after 48 hrs (reference value: 2.20 +/- 0.84 %); type: organism-based; details: in vivo
[11] = system: Mus musculus; experiment: Toxicity in KM mouse assessed as peripheral WBC number in blood per liter at 5 mg/kg/day, po 5 doses (reference value: 7.47 +/- 33.77 /L x 10^-9 cells); type: organism-based; details: in vivo
[12] = system: Mus musculus; experiment: Toxicity in KM mouse assessed as micronucleus frequency in bone marrow polychromatic erythrocyte at 20 mg/kg, po single dose after 48 hrs (reference value: 1.20 +/- 0.45 %); type: organism-based; details: in vivo
[13] = system: Hepatitis B virus; experiment: Antiviral activity against Hepatitis B virus in HepG2.2.15 cells assessed as inhibition of intracellular viral DNA replication at 0.2 uM after 3 days by real-time FQ-PCR analysis; type: functional; details: HepG2 2.2.15, 72 h
[14] = system: Hepatitis B virus; experiment: Antiviral activity against Hepatitis B virus in HepG2.2.15 cells assessed as inhibition of intracellular viral DNA replication at 5 uM after 3 days by real-time FQ-PCR analysis; type: functional; details: HepG2 2.2.15, 72 h
[15] = system: Hepatitis B virus; experiment: Antiviral activity against Hepatitis B virus in HepG2.2.15 cells assessed as inhibition of intracellular viral DNA replication at 0.2 uM after 6 days by real-time FQ-PCR analysis; type: functional; details: HepG2 2.2.15, 144 h
[16] = system: Hepatitis B virus; experiment: Antiviral activity against Hepatitis B virus in HepG2.2.15 cells assessed as inhibition of intracellular viral DNA replication at 0.2 uM after 9 days by real-time FQ-PCR analysis; type: functional; details: HepG2 2.2.15, 216 h
[17] = system: Hepatitis B virus; experiment: Antiviral activity against Hepatitis B virus in HepG2.2.15 cells assessed as inhibition of extracellular viral DNA replication at 0.2 uM after 3 days by real-time FQ-PCR analysis; type: functional; details: HepG2 2.2.15, 72 h
[18] = system: Hepatitis B virus; experiment: Antiviral activity against Hepatitis B virus in HepG2.2.15 cells assessed as inhibition of extracellular viral DNA replication at 1 uM after 3 days by real-time FQ-PCR analysis; type: functional; details: HepG2 2.2.15, 72 h
[19] = system: Hepatitis B virus; experiment: Antiviral activity against Hepatitis B virus in HepG2.2.15 cells assessed as inhibition of extracellular viral DNA replication at 5 uM after 3 days by real-time FQ-PCR analysis; type: functional; details: HepG2 2.2.15, 72 h
[20] = system: Hepatitis B virus; experiment: Antiviral activity against Hepatitis B virus in HepG2.2.15 cells assessed as inhibition of extracellular viral DNA replication at 5 uM after 6 days by real-time FQ-PCR analysis; type: functional; details: HepG2 2.2.15, 144 h
[21] = system: Hepatitis B virus; experiment: Antiviral activity against Hepatitis B virus in HepG2.2.15 cells assessed as inhibition of extracellular viral DNA replication at 0.2 uM after 9 days by real-time FQ-PCR analysis; type: functional; details: HepG2 2.2.15, 216 h
[22] = system: Hepatitis B virus; experiment: Antiviral activity against Hepatitis B virus in HepG2.2.15 cells assessed as inhibition of extracellular viral DNA replication at 5 uM after 9 days by real-time FQ-PCR analysis; type: functional; details: HepG2 2.2.15, 216 h
[23] = system: Duck hepatitis B virus; experiment: Antiviral activity against duck Hepatitis B virus infected in duck assessed as inhibition of viral DNA replication in liver at 0.04 to 20 mg/kg, po; type: functional, organism-based; details: TDE = time-dependent effect
[24] = system: Duck hepatitis B virus; experiment: Antiviral activity against duck Hepatitis B virus infected in duck assessed as inhibition of viral DNA replication in serum at 0.04 mg/kg/day, po treatment initiated at day 5 after infection relative to control; type: functional; details: 120 h
[25] = system: Duck hepatitis B virus; experiment: Antiviral activity against duck Hepatitis B virus infected in duck assessed as inhibition of viral DNA replication in serum at 1 mg/kg/day, po treatment initiated at day 10 after infection relative to control; type: functional; details: 240 h
[26] = system: Duck hepatitis B virus; experiment: Antiviral activity against duck Hepatitis B virus infected in duck assessed as inhibition of viral DNA replication in serum at 0.2 mg/kg/day, po measured after 3 days of treatment withdrawal; type: functional; details: 72 h
[27] = system: Duck hepatitis B virus; experiment: Antiviral activity against duck Hepatitis B virus infected in duck assessed as inhibition of viral DNA replication in liver at 0.2 mg/kg/day, po treatment initiated at day 5 after infection relative to control; type: functional; details: 120 h
[28] = system: Duck hepatitis B virus; experiment: Antiviral activity against duck Hepatitis B virus infected in duck assessed as inhibition of viral DNA replication in liver at 1 mg/kg/day, po treatment initiated at day 5 after infection relative to control; type: functional; details: 120 h
[29] = system: Duck hepatitis B virus; experiment: Antiviral activity against duck Hepatitis B virus infected in duck assessed as inhibition of viral DNA replication in liver at 0.04 mg/kg/day, po treatment initiated at day 10 after infection relative to control; type: functional; details: 240 h
[30] = system: Duck hepatitis B virus; experiment: Antiviral activity against duck Hepatitis B virus infected in duck assessed as inhibition of viral DNA replication in liver at 0.2 mg/kg/day, po measured after 3 days of treatment withdrawal; type: functional; details: 72 h
[31] = system: Liver microsome; experiment: Drug metabolism in rat liver microsomes assessed as 1-((2R,3S,4R,5R)-5-azido-3-fluoro-4-hydroxy-5-(hydroxymethyl)tetrahydrofuran-2-yl)-4-(2-hydroxycyclopropylamino)pyrimidin-2(1H)-one formation after 2 hrs by LC-MS/MS analysis; type: ADME
[32] = system: Rattus norvegicus; experiment: In vivo drug metabolism in rat plasma sample assessed as 1-((2R,3S,4R,5R)-5-azido-3-fluoro-4-hydroxy-5-(hydroxymethyl)tetrahydrofuran-2-yl)-4-(2-hydroxycyclopropylamino)pyrimidin-2(1H)-one formation by LC-MS/MS analysis; type: ADME, organism-based
[33] = organism: Rattus norvegicus; experiment: Drug metabolism in rat urine sample assessed as 1-((2R,3S,4R,5R)-5-azido-3-fluoro-4-hydroxy-5-(hydroxymethyl)tetrahydrofuran-2-yl)-4-(2,3-dihydroxycyclopropylamino)pyrimidin-2(1H)-one formation by LC-MS/MS analysis; type: ADME, organism-based; details: in vivo

For `[N-]=[N+]=N[C@]1(CO)O[C@@H](n2ccc(NC3CC3)nc2=O)[C@@H](F)[C@@H]1O`, the CC50 [1] was 391 µM, the inhibition [2] was “tde” and the Activity [3] was “Non-toxic”. For the same compound, the Activity [4] was “Toxic”, the Activity [5] was “Toxic” and the Activity [6] was “Non-toxic”. For the same compound, the Activity [7] was “Non-toxic”, the Activity [8] was 9.13 ×10⁹ /L and the Activity [9] was 1.6%. It also gave an Activity [10] of 1.8%, an Activity [11] of 6.05 ×10⁹ /L and an Activity [12] of 2.8%. For the same compound, the inhibition at 0.2 µM [13] was 20.6%, the inhibition at 5 µM [14] was 46.2% and the inhibition at 0.2 µM [15] was 31.7%. The inhibition at 0.2 µM [16] was 46.5%, the inhibition at 0.2 µM [17] was 33.8% and the inhibition at 1 µM [18] was 54%. The inhibition at 5 µM [19] was 53%, the inhibition at 5 µM [20] was 84% and the inhibition at 0.2 µM [21] was 52.1%. For the same compound, the inhibition at 5 µM [22] was 87.6%, the inhibition [23] was “tde” and the inhibition in vivo at 0.04 mg/kg/day [24] was 48.1%. For the same compound, the inhibition in vivo at 1 mg/kg/day [25] was 74.2%, the inhibition in vivo at 0.2 mg/kg/day [26] was 66% and the inhibition in vivo at 0.2 mg/kg/day [27] was 52.7%. It also gave an inhibition in vivo at 1 mg/kg/day [28] of 64.1%, an inhibition in vivo at 0.04 mg/kg/day [29] of 62.8% and an inhibition in vivo at 0.2 mg/kg/day [30] of 63.1%. The Drug metabolism [31] was “metabolite_detected”, the Drug metabolism [32] was “metabolite_detected” and the Drug metabolism [33] was “metabolite_detected”.
